Laboratory results from patent publication US10543227B2, “Hair growth composition” (RIKEN, priority 2015, dated 2020).
Several values for one entry are separate records, joined by “and”; a condition that tells them apart may be missing. Identical values can stand only once. Like-named read-outs stand apart in the source and are kept apart here.

Tests used:
[1] = system: hair-shaved back sites of C3H/HeN mice; test: Telogen phase model, Test 2: hair growth at hair-shaved back sites; type: in vivo
Description: (§1) C3H/HeN mice (Charles River Japan (Kanagawa, Japan)) of 6 weeks old, the hair cycle of which repeatedly proceeds anagen phase, catagen phase and telogen phase in this order, were raised for a week for acclimatization. At the age of 7 weeks (the telogen phase is started at the age), hairs on the back were shaved off by an electric clipper and a shaver. After the mice were raised overnight, application of a test solution (200 μL per site) to the hair-shaved site was initiated.
(§2) In both of Test 1 and Test 2, each test solution was applied to the hair-shaved back sites of 5-12 mice per group, daily at a frequency of once a day. […] Alternatively, where needed, the hair growth effects were evaluated by calculating % hair-growth areas.
(§3) The evaluation results of Test 1 and Test 2 are shown in Table 1 and Table 2, respectively. Evaluation results were shown by scores based on the following criteria: when the hair-growth area calculated was 0% or more and less than 10%, score 1 was given; when the hair-growth area calculated was 10% or more and less than 25%, score 2 was given, when the hair-growth area calculated was 25% or more and less than 50%, score 3 was given; when the hair-growth area calculated was 50% or more and less than 75%, score 4 was given; and when the hair-growth area calculated was 75% or more, score 5 was given.

mouse skin tissue [2] = test: Histological examination of skin tissue, anagen phase model (Example 4); type: in vivo, C3H/HeN mice; conditions: Positive control 5% MXD; after 24 days application; n = 8
Description: Paraffin sections were prepared, stained with hematoxylin/eosin (HE), and microscopically observed. Hair root density and anagen phase/telogen phase ratio were evaluated.

[3] = Description: (§4) Each test drug was applied to hair-shaved back sites (in an amount of 200 μL per site) of 5-6 animals per group, daily at a frequency of once a day. At 10 minutes and 30 minutes after the application on Day 20, average body surface temperature (° C.) was measured. […] Body surface temperature (° C.) was measured by photographing a hair-shaved site and its periphery using an infrared thermography camera (Thermoshot F30S (NEC/Avio, Tokyo, Japan)). The average body surface temperature per area was calculated using InfRec Analyzer NS9500 Standard (NEC/Avio, Tokyo, Japan).
These animals were subjected to drawing blood from the hearts on the final week for biochemical examination. Each blood was allowed to stand still on ice for 30 minutes and centrifuged twice at 10,000 rpm for 15 minutes (at 4° C.). The supernatants (i.e., sera) were transferred to new containers and stored in a freezer (at −80° C.). The sera were analyzed using a clinical chemistry analyzer for animal (FUJI DRI-CHEM 3500V) and special slides to obtain the values of [GPT (glutamate-pyruvate transaminase), GOT (glutamate oxaloacetate transaminase), GGT (γ-glutamyl transferase), LDH (lactate dehydrogenase), CHE (cholinesterase), CPK (creatine phosphokinase), ALB (albumin), TP (total protein), TCHO (total cholesterol), and TG (triglyceride)].

[4] = system: hair-shaved back sites of C3H/HeN mice; test: Telogen phase model, Test 1: hair growth at hair-shaved back sites; type: in vivo
Description: as §1, §2, §3

mouse skin tissue [5] = conditions: positive control, 5% MXD
Description: Specifically, the skin tissue was taken and fixed in 10% neutral buffered formalin. Paraffin sections thereof were prepared, stained with HE, and microscopically observed.

[6] = Average body surface temperature by infrared thermography (Example 2); conditions: Sodium thiosulfate 10% (w/v)
Description: as §4

[7] = Minoxidil 1% (w/v), Day 54 after initiation of application
[8] = Minoxidil 1%, serum, final week, N=5
[9] = Sodium thiosulfate 10% (w/v), Day 69 after initiation of application
[10] = Sodium thiosulfate 10%, serum, final week, N=5

## Nc1cc(N2CCCCC2)nc(N)[n+]1[O-] [Minoxidil, minoxidil, reference compound]
[1]; Minoxidil 1% (w/v), Day 27 after initiation of application
  hair growth score: 0
[1]; Minoxidil 1% (w/v), Day 34 after initiation of application
  hair growth score: 0
[1]; Minoxidil 1% (w/v), Day 41 after initiation of application
  hair growth score: 0
[1]; Minoxidil 1% (w/v), Day 48 after initiation of application
  hair growth score: 0
[1]; [7]
  hair growth score: 0
[1]; Minoxidil 1% (w/v), Day 61 after initiation of application
  hair growth score: 0
Mouse skin tissue [2]
  Anagen phase/telogen phase: 0.11 ± 0.05
  Hair root density: 2.04 ± 0.32 /mm
  Subcutaneous tissue: 38.4 ± 9 µm
[3]; [8]
  CHE: 16.6 ± 1.5 U/l
  TG: 294.0 ± 44.1 mg/dL
  TP: 4.7 ± 0.5 g/dL
[3]; mouse, in vivo
  ALB: 2.2 ± 0.1 g/dL
  CPK: 321.6 ± 231.5 U/l
  GGT: 1.0 ± 0.0 U/l
  GOT (AST): 66.8 ± 40.2 U/l
  LDH: 237.8 ± 101.6 U/l
  TCHO: 167.2 ± 19.3 mg/dL
[4]; Minoxidil 1% (w/v), Day 26 after initiation of application
  hair growth score: 0
[4]; Minoxidil 1% (w/v), Day 32 after initiation of application
  hair growth score: 0
[4]; Minoxidil 1% (w/v), Day 40 after initiation of application
  hair growth score: 0
[4]; Minoxidil 1% (w/v), Day 47 after initiation of application
  hair growth score: 0
[4]; [7]
  hair growth score: 0
[4]; Minoxidil 1% (w/v), Day 62 after initiation of application
  hair growth score: 0
[4]; Minoxidil 1% (w/v), Day 69 after initiation of application
  hair growth score: 0
[4]; Minoxidil 1% (w/v), Day 76 after initiation of application
  hair growth score: 0
[4]; Minoxidil 1% (w/v), Day 83 after initiation of application
  hair growth score: 0
[4]; Minoxidil 1% (w/v), Day 90 after initiation of application
  hair growth score: 0
Mouse skin tissue [5]
  tissue abnormality (HE-stained skin sections): no individuals having tissue abnormality were found

## O=S([O-])([O-])=S.[Na+].[Na+] [Sodium thiosulfate, sodium thiosulfate]
[1]; Sodium thiosulfate 10% (w/v), Day 27 after initiation of application
  hair growth score: 0
[1]; Sodium thiosulfate 10% (w/v), Day 34 after initiation of application
  hair growth score: 0
[1]; [9]
  hair growth score: 2 (when the hair-growth area calculated was 10% or more and less than 25%, score 2 was given) and 4 (when the hair-growth area calculated was 50% or more and less than 75%, score 4 was given) and 3 (when the hair-growth area calculated was 25% or more and less than 50%, score 3 was given)
[1]; Sodium thiosulfate 10% (w/v), Day 90 after initiation of application
  hair growth score: 3 (when the hair-growth area calculated was 25% or more and less than 50%, score 3 was given) and 5 (when the hair-growth area calculated was 75% or more, score 5 was given) and 4 (when the hair-growth area calculated was 50% or more and less than 75%, score 4 was given)
[3]; [10]
  ALB: 2.2 ± 0.1 g/dL
  CHE: 19.8 ± 3.1 U/l
  CPK: 608.4 ± 642.5 U/l
  GGT: 1.0 ± 0.0 U/l
  GOT (AST): 83.2 ± 46.3 U/l
  GPT (ALT): 20.8 ± 2.3 U/l
  LDH: 277.4 ± 142.6 U/l
  TCHO: 155.0 ± 10.1 mg/dL
  TG: 296.8 ± 95.5 mg/dL
  TP: 4.8 ± 0.3 g/dL
[4]; Sodium thiosulfate 1% (w/v), Day 26 after initiation of application
  hair growth score: 0
[4]; Sodium thiosulfate 1% (w/v), Day 32 after initiation of application
  hair growth score: 0
[4]; Sodium thiosulfate 1% (w/v), Day 40 after initiation of application
  hair growth score: 0
[4]; Sodium thiosulfate 1% (w/v), Day 47 after initiation of application
  hair growth score: 0
[4]; Sodium thiosulfate 1% (w/v), Day 54 after initiation of application
  hair growth score: 0
[4]; Sodium thiosulfate 1% (w/v), Day 62 after initiation of application
  hair growth score: 0
[4]; Sodium thiosulfate 1% (w/v), Day 69 after initiation of application
  hair growth score: 0
[4]; Sodium thiosulfate 1% (w/v), Day 76 after initiation of application
  hair growth score: 0
[4]; Sodium thiosulfate 1% (w/v), Day 83 after initiation of application
  hair growth score: 0
[4]; Sodium thiosulfate 1% (w/v), Day 90 after initiation of application
  hair growth score: 0
[4]; Sodium thiosulfate 2% (w/v), Day 26 after initiation of application
  hair growth score: 0
[4]; Sodium thiosulfate 2% (w/v), Day 32 after initiation of application
  hair growth score: 0
[4]; Sodium thiosulfate 2% (w/v), Day 40 after initiation of application
  hair growth score: 0
[4]; Sodium thiosulfate 2% (w/v), Day 47 after initiation of application
  hair growth score: 0
[4]; Sodium thiosulfate 2% (w/v), Day 54 after initiation of application
  hair growth score: 0
[4]; Sodium thiosulfate 2% (w/v), Day 62 after initiation of application
  hair growth score: 0
[4]; Sodium thiosulfate 2% (w/v), Day 69 after initiation of application
  hair growth score: 0
[4]; Sodium thiosulfate 2% (w/v), Day 76 after initiation of application
  hair growth score: 0
[4]; Sodium thiosulfate 2% (w/v), Day 83 after initiation of application
  hair growth score: 0
[4]; Sodium thiosulfate 2% (w/v), Day 90 after initiation of application
  hair growth score: 0
[4]; Sodium thiosulfate 2% (w/v), Day 97 after initiation of application
  hair growth score: 0
[4]; Sodium thiosulfate 4% (w/v), Day 26 after initiation of application
  hair growth score: 0
[4]; Sodium thiosulfate 4% (w/v), Day 32 after initiation of application
  hair growth score: 0
[4]; Sodium thiosulfate 4% (w/v), Day 40 after initiation of application
  hair growth score: 0
[4]; Sodium thiosulfate 4% (w/v), Day 47 after initiation of application
  hair growth score: 0
[4]; Sodium thiosulfate 4% (w/v), Day 54 after initiation of application
  hair growth score: 0
[4]; Sodium thiosulfate 10% (w/v), Day 26 after initiation of application
  hair growth score: 0
[4]; Sodium thiosulfate 10% (w/v), Day 32 after initiation of application
  hair growth score: 0
[4]; Sodium thiosulfate 10% (w/v), Day 40 after initiation of application
  hair growth score: 0
[4]; [9]
  hair growth score: 2 (when the hair-growth area calculated was 10% or more and less than 25%, score 2 was given) and 3 (when the hair-growth area calculated was 25% or more and less than 50%, score 3 was given)
[4]; as the concentration of sodium thiosulfate increases, Tests 1 and 2, FIGS. 2 and 3
  time point when hairs start growing (Kaplan-Meier curves): new hairs tend to start growing from the earlier stage
[4]; sodium thiosulfate alone, 4% (w/v) or more
  start of new hair growth and hair-growth area compared to the negative control: started growing at early stage after the application
[6]; 10 minutes after the application on Day 20
  average body surface temperature: 36.6 °C and 36.3 °C and 35.8 °C and 35.5 °C and 36.7 °C
[6]; 30 minutes after the application on Day 20
  average body surface temperature: 37.1 °C and 36.6 °C and 37 °C and 37.2 °C
